Results from patent US20250134889A1, “TARGETING IRE1 KINASE AND FMRP FOR PROPHYLAXIS, MANAGEMENT AND TREATMENT OF ATHEROSCLEROSIS” (CEDARS-SINAI MEDICAL CENTER, priority 2022, published 2025).

System: IRE1 kinase activity
Test: ER stress-induced IRE1 and FMRP phosphorylation in transfected MEFs (western blot)
Assay type: cell-based, mouse
Conditions: AMG-18 25 μM 1 hour pre-treatment, TG 600 nM 4 hours
Procedure: FIGS. 1A-1K depict FMRP is a new inositol-requiring enzyme-1 (IRE1) kinase substrate. A representative blot is shown from at least n=3 independent experiments. Data are mean±SEM. Unpaired 1-test with Welch's correction or paired 1-test. * P≤0.05, ** P≤0.01, *** P≤0.001. • 1A. STING analysis of published IRE1 interactome proteins in relation to FMRP (Acosta-Alvear et al., 2018). • 1B. HEK293T cells were co-transfected with IRE1 and FMRP plasmids and stimulated with TG (600 nM) or TM (1 mg/ml) for 2 hours. Protein lysates were immunoprecipitated (IP) with anti-IRE1 or IgG (control) antibodies and analyzed by Western blotting using specific antibodies for FMRP and IRE1 (n=3). • 1C. RAW 264.7 mouse macrophages were treated with either oxLDL (50 μg/ml) or TG (300 nM) for 6 hours. Protein lysates were treated with λ Phosphatase (PPase) for 30 minutes and analyzed by western blotting using specific antibodies for pFMRP, FMRP, pIRE1, IRE1 and β-Actin. pFMRP/FMRP fold induction is depicted above the blots (n=6). • 1D. […] Protein lysates were analyzed by western blotting using specific antibodies for pFMRP, FMRP, pIRE1, IRE1 and β-Actin. pFMRP/FMRP-fold induction is depicted above the blots (n=5). • 1E. […] Protein lysates were analyzed by western blotting using specific antibodies for pFMRP, FMRP, pIRE1, IRE1 and β-Actin. pFMRP/FMRP fold induction is depicted above the blots (n=4). • 1F. […]

Question: Which results are given for `Cc1ccc2c(NS(=O)(=O)c3ccccc3Cl)cccc2c1Oc1ncccc1-c1ccnc(N[C@H]2CCCNC2)n1` [AMG-18]?
Answer: FMRP phosphorylation (pFMRP/FMRP): clearly reducing; IRE1 phosphorylation: prevented
